From paper PMC11500415, “Chemical inhibition of stomatal differentiation by perturbation of the master-regulatory bHLH heterodimer via an ACT-Like domain” (Nature Communications, 2024)
Where “and” joins values, the source holds several entries; their conditions need not be identical. Equal values may be shown once.

Columns and labels:
[1] = molecular target: T1, SCRM-FAMA heterodimer (Arabidopsis thaliana, UniProt Q56YJ8); test: Ratiometric BiFC in N. benthamiana leaves; type: cell-based; details: 100 μM, 1 day
T1 construct: heterodimerization of SCRM with full-length SPCH, MUTE, or FAMA in the context of the plant cells; combinations of split YFP constructs fused to the full-length stomatal bHLH proteins; nYFP (N terminus of EYFP, 174 amino acids); cYFP (C terminus of EYFP, 64 amino acids); expressed in transfected cells; host or cells: Nicotiana benthamiana leaves (Agrobacterium infiltration)
T1 sequence (Q56YJ8 1-414): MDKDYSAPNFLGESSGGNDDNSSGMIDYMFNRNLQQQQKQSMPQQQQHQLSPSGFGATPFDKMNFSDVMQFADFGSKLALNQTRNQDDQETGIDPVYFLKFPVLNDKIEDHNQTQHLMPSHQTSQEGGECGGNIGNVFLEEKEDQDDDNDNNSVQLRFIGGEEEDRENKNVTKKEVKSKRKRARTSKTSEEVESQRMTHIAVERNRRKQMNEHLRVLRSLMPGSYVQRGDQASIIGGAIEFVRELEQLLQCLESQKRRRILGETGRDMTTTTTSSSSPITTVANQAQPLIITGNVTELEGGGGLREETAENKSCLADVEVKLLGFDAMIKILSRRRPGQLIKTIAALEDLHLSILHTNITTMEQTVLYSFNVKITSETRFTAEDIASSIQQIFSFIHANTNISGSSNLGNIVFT
From the text: For ratiometric BiFC assays, the cDNAs of SPCH, MUTE, and FAMA were cloned into the 35S CaMV promoter-driven destination vector pSPYNE, which contains the N terminus of the EYFP protein (nYFP-174 amino acids), while the cDNA of SCRM and SCRM2 was inserted into pSPYCE, which contains the C terminus of the EYFP protein (cYFP-64 amino acids) (see Supplementary Table 5 for detailed information of the constructs). The constructs were then transformed into Agrobacterium tumefaciens strain GV3101. The Agrobacterium was resuspended in infiltration buffer (10 mM MgCl2, 10 mM 2-(N-morpholino)ethanesulfonic acid [pH 5.6], and 150 µM acetosyringone). Bacterial culture densities were adjusted to a final optical density (OD600) of 1.0, and the cell suspensions were incubated at room temperature for 4 hours prior to infiltration. Equal volumes of cultures carrying the corresponding complementary pair of BiFC constructs (YFPn and YFPc), along with CaMV35S::Histone H2B-mScarlet-I3 and the silencing suppressor plasmid p19 (a gift from Dr. Sir David Baulcombe) were mixed and then co-infiltrated into 4-week-old N. benthamiana leaves. The infiltrated N. benthamiana leaves were incubated at 25 °C for 2 days. Subsequently, leaf discs were cut out and cultured in mock or in liquid 1/2 MS media in mock (DMSO) or 100 µM Stomidazolone for 1 day. Confocal imaging of N. benthamiana leaves was performed using a Leica SP8 confocal microscope using a 20X objective lens (Leica Microsystems), simultaneously capturing YFP (excitation at 518 nm and emission at 530 nm) and mScarlet-I3 (excitation at 569 nm and emission at 600 nm) differential interference contrast channels.

[2] = molecular target: T2, MUTE+AD (control yeast) (Arabidopsis thaliana, UniProt Q9M8K6); test: Y2H quantitative α-galactosidase assay, control pair MUTE+AD; type: cell-based; details: individual replicates, listed as AYSJ929
T2 construct: expressed in transfected cells; host or cells: yeast strain AH109
T2 sequence (Q9M8K6 1-202): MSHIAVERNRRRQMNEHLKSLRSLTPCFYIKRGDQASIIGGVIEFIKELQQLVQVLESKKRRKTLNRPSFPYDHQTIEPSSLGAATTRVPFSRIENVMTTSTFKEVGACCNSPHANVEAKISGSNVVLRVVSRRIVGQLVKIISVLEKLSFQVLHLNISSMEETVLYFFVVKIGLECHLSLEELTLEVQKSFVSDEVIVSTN
From the text: Supplement 41467_2024_53214_MOESM7_ESM.xlsx, sheet "Fig.6b" | column: a-galactosidase [milliunits /(ml x cell)]

For `O=C1C(c2ccccc2)=NC(NS(=O)(=O)c2ccccc2)(c2ccccc2)N1S(=O)(=O)c1ccccc1` (stereo not shown) [Stomidazolone], the “effect on heterodimerization, YFP/RFP signal ratio (in words)” value [1] was “not affecting”, the a-galactosidase ([2]; 10 µM) was 0.24 milliunits /(ml x cell) and 0.60 milliunits /(ml x cell) and 0.40 milliunits /(ml x cell) and the a-galactosidase ([2]; 50 µM) was 0.22 milliunits /(ml x cell) and 0.36 milliunits /(ml x cell) and 0.19 milliunits /(ml x cell). For the same compound, the a-galactosidase ([2]; 100 µM) was 0.20 milliunits /(ml x cell) and 0.52 milliunits /(ml x cell) and 0.42 milliunits /(ml x cell).
